The source made the active and inactive calls. The calls are words filed in the database; no cut-off is given here.
Key:
Assay type in all cases: functional, cell-based
NIH-H460 [1] = experiment: Induction of nur77 gene expression in human NIH-H460 cells at 1 to 10 uM after 3 hrs by RT-PCR analysis
[2] = Cytotoxicity against human […] cells by MTT method
[3] = Cytotoxicity against human NIH-H460 cells by MTT method
A2780 = experiment: Cytotoxicity against human A2780 cells by MTT method
BGC-823 = experiment: Cytotoxicity against human BGC823 cells by MTT method
A549 = experiment: Cytotoxicity against human A549 cells by MTT method
HCT-8 = experiment: Cytotoxicity against human HCT8 cells by MTT method
NIH-H460 [4] = experiment: Induction of nur77 gene expression in human NIH-H460 cells after 3 hrs by RT-PCR analysis
NIH-H460 [5] = experiment: Induction of nur77 gene expression in human NIH-H460 cells after 6 to 12 hrs by RT-PCR analysis
NIH-H460 [6] = experiment: Induction of nur77 gene expression in human NIH-H460 cells at 1 to 10 uM by RT-PCR analysis; settings: TDE = time-dependent effect
NIH-H460 [7] = experiment: Induction of nur77 gene expression in human NIH-H460 cells at 1 uM within 12 hrs by RT-PCR analysis
NIH-H460 [8] = experiment: Induction of nur77 gene expression in human NIH-H460 cells at 10 uM within 6 hrs by RT-PCR analysis

Row | Structure (SMILES) | Activity (NIH-H460 [1]) | IC50 [2] | IC50 [3] | IC50 (A2780) | IC50 (BGC-823) | IC50 (A549) | IC50 (HCT-8) | Activity (NIH-H460 [4]) | Activity (NIH-H460 [5]) | Activity (NIH-H460 [6]) | Activity (NIH-H460 [7]) | Activity (NIH-H460 [8])
1 | O=C(CO)Nc1cc2c(cc1OC(=O)CO)Oc1ccc(CO)cc1N2 [VNEZUELINE D] | inactive | > 50 µg/mL | > 50 µg/mL | > 50 µg/mL | > 50 µg/mL | > 50 µg/mL | > 50 µg/mL | – | – | – | – | –
2 | CC(=O)Nc1cc(COCc2ccc(O)c(NC(C)=O)c2)ccc1O [VNEZUELINE F] | – | > 50 µg/mL | > 50 µg/mL | > 50 µg/mL | > 50 µg/mL | > 50 µg/mL | > 50 µg/mL | – | – | – | – | –
3 | COCc1ccc(O)c(NC(C)=O)c1 [VNEZUELINE G] | – | > 50 µg/mL | > 50 µg/mL | > 50 µg/mL | > 50 µg/mL | > 50 µg/mL | > 50 µg/mL | – | – | – | – | –
4 | O=C(CO)Nc1cc2nc3cc(CO)ccc3oc-2cc1=O [CHANDRANANIMYCIN D] | – | > 30 µg/mL | > 30 µg/mL | > 30 µg/mL | > 30 µg/mL | > 30 µg/mL | > 30 µg/mL | – | – | – | – | –
5 | CCCC(=O)OCc1ccc2oc3cc(=O)c(NC(C)=O)cc-3nc2c1 [VNEZUELINE E] | – | > 30 µg/mL | > 30 µg/mL | > 30 µg/mL | > 30 µg/mL | > 30 µg/mL | > 30 µg/mL | – | – | – | – | –
6 | CC(=O)Nc1cc2c(cc1OC(=O)CO)Oc1ccc(CO)cc1N2 [VNEZUELINE C] | – | > 50 µg/mL | > 50 µg/mL | > 50 µg/mL | > 50 µg/mL | > 50 µg/mL | > 50 µg/mL | – | – | – | – | –
7 | O=c1[nH]cc(F)c(=O)[nH]1 [FLUOROURACIL] | – | 3.85 µM | 7.12 µM | 5.4 µM | 3.84 µM | 1.54 µM | 5.38 µM | – | – | – | – | –
8 | CC(=O)Nc1cc(Cc2cc3oc4cc(=O)c(NC(C)=O)cc-4nc3cc2CO)ccc1O [VNEZUELINE A] | – | > 30 µg/mL | > 30 µg/mL | > 30 µg/mL | > 30 µg/mL | > 30 µg/mL | > 30 µg/mL | – | – | – | – | –
9 | O=C1NC2=Nc3cc(CO)ccc3O[C@]23[C@H](O)CC[C@H]13 [VNEZUELINE B] | – | > 10 µM | 9.67 µM | 6.57 µM | 6.78 µM | 7.52 µM | 5.74 µM | Dose-dependent effect | – | – | – | –
10 | CC(=O)Nc1cc2nc3cc(C(=O)O)ccc3oc-2cc1=O [CARBOXYEXFOLIAZONE] | – | > 30 µg/mL | > 30 µg/mL | > 30 µg/mL | > 30 µg/mL | > 30 µg/mL | > 30 µg/mL | – | – | – | – | –
11 | CC(=O)Nc1cc2nc3cc(CO)ccc3oc-2cc1=O [EXFOLIAZONE] | – | > 10 µM | 13.6 µM | 2.52 µM | 3.4 µM | 9.16 µM | 4.89 µM | – | Dose-dependent effect | tde | Active | Active
